We go through five molecules from US12673026B2, “Liposomal compositions and methods of use thereof for improved stability, bioavailability and sustained release” (SpecNova LLC, priority 2023, dated 2026).

As usually defined, the Papp A→B is the apparent permeability from the apical to the basolateral side of a cell layer. The low end stands for poor permeation, the high end for ready permeation.

Data set [1] is described as follows: Carnosine permeability across Caco-2 cells. The format is in vitro ADME, Human. To be noted: human; Caco-2 passage 26; 20 μM in HBSS; apical to basolateral. Here is the method:
(§1) The study was performed using Caco-2 cells at a passage number of 26 seeded on a 24-well transwell plates. The permeability of carnosine was studied at a concentration of 20 μM. Compounds were solubilized in HBSS and added to apical compartment of transwells and blank buffer on basolateral side.

Data set [2] deals with Caco-2 cells. Put plainly: Carnosine permeability across Caco-2 cells. The format is in vitro ADME, Human. To be noted: Caco-2 passage 26, A-->B. Here is the method:
as §1
A general note: Caco-2 monolayers are a common model of the intestinal barrier.

Data set [3] in a line: L-carnosine stability in simulated gastric and intestinal fluids. The format is physicochemical. To be noted: for % Remaining: 10 μM, 37.0° C. Here is the method: Three fluids were simulated: fasted (pH 1.2) and fed (pH 3.5) simulated gastric fluid (SGF) and simulated intestinal fluid (SIF) (pH 6.8). […] A zero time point was taken after adding the appropriate stock to each fluid (N=2) and mixed by pipette. Time points were then taken at 5, 10, 15, 30, 60, 90, and 120 minutes. These were quenched with ACN and kept on ice. The samples were then added to 50% ACN in […] ammonium acetate buffer (pH=3.6) with Verapamil for Internal Standard (IS) and filtered before analysis.
Two concentrations of working stocks were made at 5000 ng/ml and 200 ng/ml. In Table 12, diluent is 50% ACN in […] ammonium acetate buffer (pH=3.6). The total analytical volume was 200 μL for all standards and samples. Six sets of QCs were used along with the samples and seven calibration standards. All were analyzed by UPLC-MS/MS on the same day as preparation.

Data set [4] is described as follows: CoQ10 Caco-2 permeability. The format is in vitro ADME, Human. To be noted: human; Caco-2 passage 38; formulation: supernatant of 1 mg/mL in HBSS; pure compound 10 μM; apical to basolateral. Here is the method: (§2) The study was performed using Caco-2 cells at a passage number of 38 seeded on a 24-well transwell plate. […] Instead, the formulation was added to the HBSS buffer at a concentration of 1 mg/mL, vortexed, and centrifuged for 15 min at 10,000 G-force. The supernatant was used for permeability assessment. For pure compound, the permeability study was performed at 10 μM final concentration. Compound solutions were added to the apical compartments of the transwell and blank buffer on the basolateral side. FIG. 9 provides a visual summary of this process.

The test system of data set [5] is Caco-2 cells. As to the kind of experiment: CoQ10 Caco-2 permeability. The format is in vitro ADME, Human. To be noted: Caco-2 passage 38, A --> B. Here is the method: as §2
Data set [6] is described as follows: Berberine chloride Caco-2 permeability. The format is in vitro ADME, Human. To be noted: human; Caco-2 passage 38; formulation: supernatant of 1 mg/mL in HBSS; pure compound 10 μM; apical to basolateral. Here is the method:
as §2

The subject of data set [7] is Caco-2 cells. Put plainly: Berberine chloride Caco-2 permeability. The format is in vitro ADME, Human. The following applies: Caco-2 passage 38, A --> B. Here is the method:
as §2

A short description of data set [8]: Quercetin Caco-2 permeability. The format is in vitro ADME, Human. The following applies: human; Caco-2 passage 28; 20 μM in HBSS; apical to basolateral. Here is the method: (§3) The study was performed using Caco-2 cells at a passage number of 28 seeded on a 96-well Transwell plates. Permeability was studied at a concentration of 20 μM. Compounds were solubilized in HBSS and added to apical compartment of the Transwell plate and blank buffer on basolateral side. FIG. 17 provides a visual summary of this process.

Data set [9] relates to Caco-2 cells. As to the kind of experiment: Quercetin Caco-2 permeability. The following applies: Caco-2 passage 28, A-->B. The format is in vitro ADME, Human. Here is the method: as §3
Data set [10] is described as follows: Randomized, double-blind, placebo-controlled crossover trial: plasma and leukocyte vitamin C concentration after single dose. The format is in vivo, human. To be noted: single 500 mg dose; p<0.001. Here is the method:
Venous blood samples were collected 0, 0.5-, 1-, 1.5-, 2-, 3-, 4-, 6-, 8-, 12-, and 24-hours after ingestion and were analyzed for plasma and leukocyte vitamin C concentration.

Each structure is given as a SMILES string.

In turn, `NCCC(=O)N[C@@H](Cc1cnc[nH]1)C(=O)O` [Carnosine, L-carnosine] showed a Papp A→B at 20 μM in [1] of 3.05 ± 0.62 ×10⁻⁶ cm/s. For the same molecule, the “Permeability Class (High/Low)” value in data set [2] was “Low”. Also, the “% Remaining” value in data set [3] (Fasted SGF (pH 1.2), 0 minutes) is given as 100%; in data set [3] (Fasted SGF (pH 1.2), 5 minutes) it was 100.3%; in data set [3] (Fasted SGF (pH 1.2), 10 minutes) it was 95.5%; in [3] (Fasted SGF (pH 1.2), 15 minutes) it was 97.5%; in data set [3] (Fasted SGF (pH 1.2), 30 minutes), 94%; in [3] (Fasted SGF (pH 1.2), 60 minutes), 99.4%. Besides, the “% Remaining” value is 101.5% in [3] (Fasted SGF (pH 1.2), 90 minutes); 96.5% in [3] (Fasted SGF (pH 1.2), 120 minutes); 100% in [3] (Fed SGF (pH 3.5), 0 minutes); 103.9% in data set [3] (Fed SGF (pH 3.5), 5 minutes); 97.6% in [3] (Fed SGF (pH 3.5), 10 minutes); 91.9% in data set [3] (Fed SGF (pH 3.5), 15 minutes). The “% Remaining” value was 96.5% in data set [3] (Fed SGF (pH 3.5), 30 minutes); 102.2% in [3] (Fed SGF (pH 3.5), 60 minutes); 97.4% in data set [3] (Fed SGF (pH 3.5), 90 minutes); 97.4% in data set [3] (Fed SGF (pH 3.5), 120 minutes); 100% in data set [3] (SIF (pH 6.8), 0 minutes); 96.9% in data set [3] (SIF (pH 6.8), 5 minutes). The “% Remaining” value in data set [3] (SIF (pH 6.8), 10 minutes) was 91%; in [3] (SIF (pH 6.8), 15 minutes) it was 89%; in data set [3] (SIF (pH 6.8), 30 minutes) it was 95.8%; in data set [3] (SIF (pH 6.8), 60 minutes), 103%; in [3] (SIF (pH 6.8), 90 minutes) it was 100.1%; in data set [3] (SIF (pH 6.8), 120 minutes), 99.1%. Moreover, the “stability in SGF and SIF” value in data set [3] (over 120 minutes) was “stable”.
For `COC1=C(OC)C(=O)C(C/C=C(\C)CC/C=C(\C)CC/C=C(\C)CC/C=C(\C)CC/C=C(\C)CC/C=C(\C)CC/C=C(\C)CC/C=C(\C)CC/C=C(\C)CCC=C(C)C)=C(C)C1=O` [CoQ10 Reference Standard, CoQ10], the Papp A→B at 10 μM in [4] amounted to 0.2 ± 0.13 ×10⁻⁶ cm/s. Besides, the “Permeability Class (High/Low)” value in [5] is on record as “Low”.
For `COc1ccc2cc3[n+](cc2c1OC)CCc1cc2c(cc1-3)OCO2` [Sigma Aldrich Berberine Chloride, Berberine Chloride], in data set [6], the apical-to-basolateral permeability (Papp A→B) at 10 μM is 2.17 ± 0.17 ×10⁻⁶ cm/s. Moreover, in [7], the “Permeability Class (High/Low)” value is recorded as “Low”.
On to `O=c1c(O)c(-c2ccc(O)c(O)c2)oc2cc(O)cc(O)c12` [USP Quercetin, quercetin], for which the Papp A→B at 20 μM in [8] was 8.83 ± 0.17 ×10⁻⁶ cm/s. In addition, the “Permeability Class (High/Low)” value in data set [9] was “High”.
For the molecule `O=C1O[C@H]([C@@H](O)CO)C(O)=C1O` [VIT C, L-Ascorbic acid], the “Cmax and AUC0-24 in plasma and in leukocytes compared to placebo” value in data set [10] is listed as “significantly greater”.
